Measurements: patent US20160122320A1, “USEFUL COMBINATIONS OF MONOBACTAM ANTIBIOTICS WITH BETA-LACTAMASE INHIBITORS” (Basilea Pharmaceutica AG, priority 2005, published 2016)

Tests used:
Assay in all cases: MIC, NCCLS broth microdilution
Type in all cases: cell-based
[1] = tested on: Enterobacter aerogenes B1
Protocol: (§1) Antimicrobial activity of the compounds and of their combinations was determined against a selection of organisms according to the standard procedures described by the National Committee for Clinical Laboratory Standards (National Committee for Clinical Laboratory. Standards (2000). Methods for Dilution Antimicrobial Susceptibility Tests for Bacteria That Grow Aerobically-Fifth Edition: Approved Standard M7-A5. NCCLS, Wayne, Pa., USA).
(§2) In all cases the final concentration of DMSO incubated with the bacteria is less than or equal to 1%. […] Plates were incubated overnight at an appropriate temperature (30° C. or 37° C.) and optical densities assessed by eye. The MIC value is defined as the lowest compound concentration completely inhibiting visible growth of the test organism. When combinations between compounds of formula I with compounds of formula II and are evaluated the compounds of formula I are tested in dilution series as described above while the compounds of formula II and III-XIII were present in all wells at a constant concentration of 4 μg/mL each.

[2] = tested on: Enterobacter cloacae M4018
Protocol: as §2

[3] = tested on: Enterobacter aerogenes Zayakosky; settings: Enterobacter aerogenes Zayakosky
Protocol: as §1, §2

[4] = tested on: Stenotrophomonas malthophilia 1AC736; settings: for MIC of antibiotic: antibiotic alone, no inhibitor
[5] = tested on: Enterobacter cloacae ATCC13047/CRO-R
Protocol: as §1, §2

[6] = tested on: Pseudomonas aeruginosa 1973E
Method in brief: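 Broth microdilution per NCCLS M7-A5, final DMSO ≤1%, overnight incubation at 30° C. or 37° C. MIC is the lowest concentration completely inhibiting visible growth, read by eye. In combination tests, formula I compounds were serially diluted with formula II and III-XIII partners held at 4 μg/mL each.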

Enterobacter cloacae P99 = tested on: Enterobacter cloacae P99
Protocol: as §1, §2

[7] = tested on: Klebsiella pneumoniae CF104
[8] = tested on: Enterobacter cloacae B1102
Protocol: as §1, §2

Acinetobacter sp. J2 = settings: for MIC of antibiotic: antibiotic alone, no inhibitor
[9] = tested on: Pseudomonas aeruginosa MK1184
Serratia marcescens S6 = tested on: Serratia marcescens S6
Enterobacter cloacae MRW = tested on: Enterobacter cloacae MRW
Protocol: as §2

[10] = + compound 323 and clavulanate, 4 mg/L each
[11] = with clavulanate (clavulanic acid)

CC1C(NC(=O)C(=NOCc2cc(=O)c(O)cn2O)c2csc(N)n2)C(=O)N1S(=O)(=O)O (stereo not drawn) [Compound 1]
Minimal Inhibitory Concentration of antibiotic at fixed inhibitor concentration of 4 mg/L ([1]; + clavulanate 4 mg/L): >32 mg/L | Minimal Inhibitory Concentration of antibiotic at fixed inhibitor concentration of 4 mg/L ([1]; + compound 206 4 mg/L): 16 mg/L | Minimal Inhibitory Concentration of antibiotic at fixed inhibitor concentration of 4 mg/L [1, 10]: 4 mg/L | Minimal Inhibitory Concentration of antibiotic at fixed inhibitor concentration of 4 mg/L ([1]; + compound 501 4 mg/L): >32 mg/L | Minimal Inhibitory Concentration of antibiotic ([1]; antibiotic alone): 32 mg/L | Minimal Inhibitory Concentration of antibiotic at fixed inhibitor concentration of 4 mg/L ([2]; + clavulanate 4 mg/L): >32 mg/L | Minimal Inhibitory Concentration of antibiotic at fixed inhibitor concentration of 4 mg/L ([2]; + compound 206 4 mg/L): 8 mg/L | Minimal Inhibitory Concentration of antibiotic at fixed inhibitor concentration of 4 mg/L [2, 10]: 2 mg/L | Minimal Inhibitory Concentration of antibiotic at fixed inhibitor concentration of 4 mg/L ([2]; + compound 501 4 mg/L): 16 mg/L | Minimal Inhibitory Concentration of antibiotic ([2]; antibiotic alone): 32 mg/L | Minimal Inhibitory Concentration of antibiotic at fixed inhibitor concentration of 4 mg/L ([3]; + clavulanate 4 mg/L): >32 mg/L | Minimal Inhibitory Concentration of antibiotic at fixed inhibitor concentration of 4 mg/L ([3]; + compound 206 4 mg/L): >32 mg/L | Minimal Inhibitory Concentration of antibiotic at fixed inhibitor concentration of 4 mg/L [3, 10]: 16 mg/L | Minimal Inhibitory Concentration of antibiotic at fixed inhibitor concentration of 4 mg/L ([3]; + compound 501 4 mg/L): >32 mg/L | Minimal Inhibitory Concentration of antibiotic ([3]; antibiotic alone): >32 mg/L | MIC of antibiotic ([4]; Stenotrophomonas malthophilia 1AC736): 0.5 µg/mL | MIC of antibiotic ([4]; Stenotrophomonas maltophilia 1AC736): 1 µg/mL | MIC of antibiotic at fixed inhibitor concentration of 4 mg/L ([4]; Stenotrophomonas maltophilia 1AC736, with 102 and sulbactam): 2 µg/mL | MIC of antibiotic at fixed inhibitor concentration of 4 mg/L ([4]; Stenotrophomonas maltophilia 1AC736, with 111 and clavulanate): 0.125 µg/mL | MIC of antibiotic at fixed inhibitor concentration of 4 mg/L ([4]; Stenotrophomonas maltophilia 1AC736, with 202 and clavulanate): 0.125 µg/mL | MIC of antibiotic at fixed inhibitor concentration of 4 mg/L ([4]; Stenotrophomonas maltophilia 1AC736, with 206 and clavulanate): 0.125 µg/mL | MIC of antibiotic at fixed inhibitor concentration of 4 mg/L ([4]; Stenotrophomonas maltophilia 1AC736, with 323 and clavulanate): 0.125 µg/mL | MIC of antibiotic at fixed inhibitor concentration of 4 mg/L ([4]; Stenotrophomonas maltophilia 1AC736, with 323 and sulbactam): 0.125 µg/mL | MIC of antibiotic at fixed inhibitor concentration of 4 mg/L ([4]; Stenotrophomonas maltophilia 1AC736, with 324 and clavulanate): 0.125 µg/mL | MIC of antibiotic at fixed inhibitor concentration of 4 mg/L ([4]; Stenotrophomonas maltophilia 1AC736, with 501): 0.25 µg/mL | MIC of antibiotic at fixed inhibitor concentration of 4 mg/L ([4]; Stenotrophomonas maltophilia 1AC736, with clavulanate (clavulanic acid)): 0.5 µg/mL | Minimal Inhibitory Concentration of antibiotic at fixed inhibitor concentration of 4 mg/L ([5]; + clavulanate 4 mg/L): >32 mg/L | Minimal Inhibitory Concentration of antibiotic at fixed inhibitor concentration of 4 mg/L ([5]; + compound 206 4 mg/L): >32 mg/L | Minimal Inhibitory Concentration of antibiotic at fixed inhibitor concentration of 4 mg/L [5, 10]: 8 mg/L | Minimal Inhibitory Concentration of antibiotic at fixed inhibitor concentration of 4 mg/L ([5]; + compound 501 4 mg/L): >32 mg/L | Minimal Inhibitory Concentration of antibiotic ([5]; antibiotic alone): >32 mg/L | MIC of antibiotic ([6]; antibiotic alone, no inhibitor): 16 µg/mL | MIC of antibiotic at fixed inhibitor concentration of 4 mg/L ([6]; with 102 and clavulanate): 2 µg/mL | MIC of antibiotic at fixed inhibitor concentration of 4 mg/L ([6]; with 111 and clavulanate): 4 µg/mL | MIC of antibiotic at fixed inhibitor concentration of 4 mg/L ([6]; with 202 and clavulanate): 4 µg/mL | MIC of antibiotic at fixed inhibitor concentration of 4 mg/L ([6]; with 206 and clavulanate): 4 µg/mL | MIC of antibiotic at fixed inhibitor concentration of 4 mg/L ([6]; with 323 and clavulanate): 8 µg/mL | MIC of antibiotic at fixed inhibitor concentration of 4 mg/L ([6]; with 323 and sulbactam): 4 µg/mL | MIC of antibiotic at fixed inhibitor concentration of 4 mg/L ([6]; with 324 and clavulanate): 8 µg/mL | MIC of antibiotic at fixed inhibitor concentration of 4 mg/L ([6]; with 501): 8 µg/mL | MIC of antibiotic at fixed inhibitor concentration of 4 mg/L [6, 11]: 8 µg/mL | MIC of antibiotic (Enterobacter cloacae P99; antibiotic alone, no inhibitor): >32 µg/mL | MIC of antibiotic at fixed inhibitor concentration of 4 mg/L (Enterobacter cloacae P99; with 102 and clavulanate): 4 µg/mL | MIC of antibiotic at fixed inhibitor concentration of 4 mg/L (Enterobacter cloacae P99; with 111 and clavulanate): 4 µg/mL | MIC of antibiotic at fixed inhibitor concentration of 4 mg/L (Enterobacter cloacae P99; with 202 and clavulanate): 16 µg/mL | MIC of antibiotic at fixed inhibitor concentration of 4 mg/L (Enterobacter cloacae P99; with 206 and clavulanate): 8 µg/mL | MIC of antibiotic at fixed inhibitor concentration of 4 mg/L (Enterobacter cloacae P99; with 323 and clavulanate): 4 µg/mL | MIC of antibiotic at fixed inhibitor concentration of 4 mg/L (Enterobacter cloacae P99; with 323 and sulbactam): 4 µg/mL | MIC of antibiotic at fixed inhibitor concentration of 4 mg/L (Enterobacter cloacae P99; with 324 and clavulanate): 4 µg/mL | MIC of antibiotic at fixed inhibitor concentration of 4 mg/L (Enterobacter cloacae P99; with 501): 16 µg/mL | MIC of antibiotic at fixed inhibitor concentration of 4 mg/L (Enterobacter cloacae P99; [11]): 32 µg/mL | MIC of antibiotic ([7]; antibiotic alone, no inhibitor): >32 µg/mL | MIC of antibiotic at fixed inhibitor concentration of 4 mg/L ([7]; with 102 and clavulanate): 1 µg/mL | MIC of antibiotic at fixed inhibitor concentration of 4 mg/L ([7]; with 111 and clavulanate): <0.06 µg/mL | MIC of antibiotic at fixed inhibitor concentration of 4 mg/L ([7]; with 202 and clavulanate): 2 µg/mL | MIC of antibiotic at fixed inhibitor concentration of 4 mg/L ([7]; with 206 and clavulanate): 0.25 µg/mL | MIC of antibiotic at fixed inhibitor concentration of 4 mg/L ([7]; with 323 and clavulanate): 2 µg/mL | MIC of antibiotic at fixed inhibitor concentration of 4 mg/L ([7]; with 323 and sulbactam): 1 µg/mL | MIC of antibiotic at fixed inhibitor concentration of 4 mg/L ([7]; with 324 and clavulanate): 1 µg/mL | MIC of antibiotic at fixed inhibitor concentration of 4 mg/L ([7]; with 501): 0.5 µg/mL | MIC of antibiotic at fixed inhibitor concentration of 4 mg/L [7, 11]: 0.5 µg/mL | Minimal Inhibitory Concentration of antibiotic at fixed inhibitor concentration of 4 mg/L ([8]; + clavulanate 4 mg/L): 32 mg/L | Minimal Inhibitory Concentration of antibiotic at fixed inhibitor concentration of 4 mg/L ([8]; + compound 206 4 mg/L): 16 mg/L | Minimal Inhibitory Concentration of antibiotic at fixed inhibitor concentration of 4 mg/L [8, 10]: 8 mg/L | Minimal Inhibitory Concentration of antibiotic at fixed inhibitor concentration of 4 mg/L ([8]; + compound 501 4 mg/L): 16 mg/L | Minimal Inhibitory Concentration of antibiotic ([8]; antibiotic alone): >32 mg/L | MIC of antibiotic (Acinetobacter sp. J2; Acinetobacter baumannii J2): >32 µg/mL | MIC of antibiotic at fixed inhibitor concentration of 4 mg/L (Acinetobacter sp. J2; Acinetobacter baumannii J2, with 111 and clavulanate): 4 µg/mL | MIC of antibiotic at fixed inhibitor concentration of 4 mg/L (Acinetobacter sp. J2; Acinetobacter baumannii J2, with 202 and clavulanate): 4 µg/mL | MIC of antibiotic at fixed inhibitor concentration of 4 mg/L (Acinetobacter sp. J2; Acinetobacter baumannii J2, with 206 and clavulanate): 4 µg/mL | MIC of antibiotic at fixed inhibitor concentration of 4 mg/L (Acinetobacter sp. J2; Acinetobacter baumannii J2, with 323 and clavulanate): 16 µg/mL | MIC of antibiotic at fixed inhibitor concentration of 4 mg/L (Acinetobacter sp. J2; Acinetobacter baumannii J2, with 323 and sulbactam): 1 µg/mL | MIC of antibiotic at fixed inhibitor concentration of 4 mg/L (Acinetobacter sp. J2; Acinetobacter baumannii J2, with 324 and clavulanate): 32 µg/mL | MIC of antibiotic at fixed inhibitor concentration of 4 mg/L (Acinetobacter sp. J2; Acinetobacter baumannii J2, with 501): <0.06 µg/mL | MIC of antibiotic at fixed inhibitor concentration of 4 mg/L (Acinetobacter sp. J2; Acinetobacter baumannii J2, with clavulanate (clavulanic acid)): >32 µg/mL | MIC of antibiotic (Acinetobacter sp. J2; Acinetobacter sp. J2): >32 µg/mL | MIC of antibiotic ([9]; antibiotic alone, no inhibitor): >32 µg/mL | MIC of antibiotic at fixed inhibitor concentration of 4 mg/L ([9]; with 102 and clavulanate): 4 µg/mL | MIC of antibiotic at fixed inhibitor concentration of 4 mg/L ([9]; with 103 and clavulanate): 8 µg/mL | MIC of antibiotic at fixed inhibitor concentration of 4 mg/L ([9]; with 111 and clavulanate): 8 µg/mL | MIC of antibiotic at fixed inhibitor concentration of 4 mg/L ([9]; with 202 and clavulanate): 8 µg/mL | MIC of antibiotic at fixed inhibitor concentration of 4 mg/L ([9]; with 206 and clavulanate): >32 µg/mL | MIC of antibiotic at fixed inhibitor concentration of 4 mg/L ([9]; with 323 and clavulanate): 16 µg/mL | MIC of antibiotic at fixed inhibitor concentration of 4 mg/L ([9]; with 323 and sulbactam): 4 µg/mL | MIC of antibiotic at fixed inhibitor concentration of 4 mg/L ([9]; with 501): >32 µg/mL | MIC of antibiotic at fixed inhibitor concentration of 4 mg/L [9, 11]: >32 µg/mL | MIC of antibiotic at fixed inhibitor concentration of 4 mg/L (Serratia marcescens S6; with 111 and clavulanate): 0.25 µg/mL | MIC of antibiotic at fixed inhibitor concentration of 4 mg/L (Serratia marcescens S6; with 202 and clavulanate): 0.5 µg/mL | MIC of antibiotic at fixed inhibitor concentration of 4 mg/L (Serratia marcescens S6; with 206 and clavulanate): 4 µg/mL | MIC of antibiotic at fixed inhibitor concentration of 4 mg/L (Serratia marcescens S6; with 323 and clavulanate): 0.25 µg/mL | MIC of antibiotic at fixed inhibitor concentration of 4 mg/L (Serratia marcescens S6; with 323 and sulbactam): 0.5 µg/mL | MIC of antibiotic at fixed inhibitor concentration of 4 mg/L (Serratia marcescens S6; with 324 and clavulanate): 1 µg/mL | MIC of antibiotic at fixed inhibitor concentration of 4 mg/L (Serratia marcescens S6; with 501): 4 µg/mL | MIC of antibiotic at fixed inhibitor concentration of 4 mg/L (Serratia marcescens S6; [11]): 4 µg/mL | Minimal Inhibitory Concentration of antibiotic at fixed inhibitor concentration of 4 mg/L (Enterobacter cloacae MRW; + clavulanate 4 mg/L): 32 mg/L | Minimal Inhibitory Concentration of antibiotic at fixed inhibitor concentration of 4 mg/L (Enterobacter cloacae MRW; + compound 206 4 mg/L): 16 mg/L | Minimal Inhibitory Concentration of antibiotic at fixed inhibitor concentration of 4 mg/L (Enterobacter cloacae MRW; [10]): 4 mg/L | Minimal Inhibitory Concentration of antibiotic at fixed inhibitor concentration of 4 mg/L (Enterobacter cloacae MRW; + compound 501 4 mg/L): 32 mg/L | Minimal Inhibitory Concentration of antibiotic (Enterobacter cloacae MRW; antibiotic alone): >32 mg/L
